Experimental data as given in ChEMBL document CHEMBL1201862, “PubChem BioAssay data set” (2004).
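Method: 48-hour compound exposure of cells in 96-well plates, five concentrations, linear interpolation of endpoints. The concentration for 50% growth inhibition is given as GI50.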 Activity calls are given as the source filed them. Cut-off read from the data, not from the text of the source: active = GI50 up to about 1.1 µM and inactive = higher.

Experiments:
Experiment in all cases: NCI anticancer screen, dose series, 48 h
[1] = test system: MDA-MB-231
[2] = test system: HCT-116
[3] = test system: DU-145
[4] = test system: A549
[5] = test system: PC-3
[6] = test system: NCI-H23
[7] = test system: NCI-H522
[8] = test system: Hs-578T
[9] = test system: MOLT-4
[10] = test system: SNB-19
[11] = test system: SF-295
[12] = test system: T47D
[13] = test system: SK-MEL-2
[14] = test system: OVCAR-4
[15] = test system: UO-31
[16] = test system: EKVX
[17] = test system: UACC-257
[18] = test system: RXF 393
[19] = test system: HCC 2998
[20] = test system: OVCAR-5

Measured: GI50

CN1CCN(Cc2nc3cccc4c3c([n+]2[O-])-c2ccccc2-4)CC1
inactive: [1] 15.8 µM | [2] 4.41 µM | [3] 14.9 µM | [4] 14.8 µM | [5] 11.4 µM | [6] 26.8 µM | [7] 14.3 µM | [8] 34.9 µM | [9] 12.4 µM | [10] 16.9 µM | [11] 41 µM | [12] 29.3 µM | [13] 23.1 µM | [14] 25.2 µM | [15] 20 µM | [16] 31.4 µM | [17] 24.4 µM | [18] 10.8 µM | [19] 53 µM | [20] > 34.2 µM

[O-][S+]1SC(=S)C2C=CC=NC21 (stereo not given)
inactive: [1] 18.7 µM | [2] 13.7 µM | [3] 16.6 µM | [4] 19.2 µM | [5] 16.8 µM | [6] 18.6 µM | [7] 14.3 µM | [8] 20.7 µM | [9] 16.4 µM | [10] 26.1 µM | [11] 22.4 µM | [12] 18.9 µM | [13] 19.4 µM | [14] > 100 µM | [15] 14.7 µM | [16] 13.2 µM | [17] 15.4 µM | [18] 18.3 µM | [19] 15.5 µM | [20] 15.3 µM
